From patent US4139628A, “Amino-spiro[oxa(or thia)cycloalkane-penam]-carboxylic acid derivatives” (U C B, Societe Anonyme, priority 1977, dated 1979)

Columns and labels:
[1] = test system: Escherichia coli K 12-44 S; format: cell-based; details: E.COLI K 12-44S; relative to ampicillin = 1
Experimental: It is very sensitive to penicillins due to hyperpermeability.
(§1) The products to be tested are introduced in increasing concentrations into a gelose culture medium in Petri dishes. A multiple inoculator is used to deposit simultaneously drops (10 microliters) of inoculum (suspension of about 10^5 bacteria per ml) onto the surface of the medium. After incubation at 37° C. for 24 hours, the growth of the bacteria is observed. By definition, the MIC is expressed as the minimum concentration of the tested compounds which inhibits the multiplication of the bacteria. In the results which follow, however, the MIC is given as being equal to 1 for the reference compounds and the activity figures given for the tested compounds of general formula (I) are, therefore, relative values. This presentation of the results is more correct and the most reproducible, because, for one and the same bacterial strain, different MIC values can be observed if they are measured at different times. This is bound up with the "seasonal" variations in the strains and their nutrient medium.

[2] = test system: Escherichia coli B AMPI-R; test: minimum inhibitory concentration (MIC), gelose culture medium in Petri dishes; format: cell-based; details: relative MIC (ampicillin = 1) on E. COLI B versus its beta-lactamase hyperproducer mutant
Experimental: This is a mutant of the preceding strain, which we have produced.
as §1

[3] = test system: beta-lactamase TEM; test: hydrolysis kinetics in the presence of beta-lactamase (residual activity); format: biochemical, Gram-negative bacteria; details: after incubation for 6 minutes
[4] = molecular target: T1, beta-lactamase P 99 (Enterobacter cloacae, UniProt P05364); test: as above; format: biochemical, Gram-negative bacteria; details: as compared with ampicillin
T1 construct: source not detailed
T1 sequence (P05364 21-381): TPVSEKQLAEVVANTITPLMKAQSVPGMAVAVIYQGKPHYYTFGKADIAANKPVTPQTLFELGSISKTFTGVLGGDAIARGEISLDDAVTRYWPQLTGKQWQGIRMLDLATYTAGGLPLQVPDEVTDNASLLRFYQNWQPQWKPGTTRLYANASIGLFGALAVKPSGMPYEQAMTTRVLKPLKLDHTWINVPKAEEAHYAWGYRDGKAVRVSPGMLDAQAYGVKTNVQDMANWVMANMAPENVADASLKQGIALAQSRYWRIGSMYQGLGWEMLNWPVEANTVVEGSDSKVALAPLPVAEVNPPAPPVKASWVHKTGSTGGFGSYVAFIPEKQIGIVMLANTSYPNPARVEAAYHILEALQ

`N[C@@H](C(=O)NC1C(=O)N2C1SC1(CCOCC1)C2C(=O)O)c1ccccc1` (single isomer, unassigned) [Compound B, 6-(2"-amino-2"-phenylacetamido)-2',3',5',6'-tetrahydro-spiro[penam-2,4'-[4H]pyran]-3-carboxylic acid] was tested, and the “MIC, relative value” [1] was 1.9, the “difference between the activity on E. COLI B and on E. COLI B Ampi-R (factor)” value [2] was 3.5 and the “Remaining activity as percentage” value [3] was 87%.

In the case of `NC(C(=O)NC1C(=O)N2C1SC1(CC[S+]([O-])CC1)C2C(=O)O)c1ccccc1` (stereo not drawn) [Compound J, 6-(2"-amino-2"-phenylacetamido)-2',3',5',6'-tetrahydro-spiro[penam-2,4'-[4H]thiopyran]-3-carboxylic acid 1'-oxide], the “resistance to beta-lactamase, in words” value [4] is reported as “No change in behavior”.

With `NC(C(=O)NC1C(=O)N2C1SC1(CCSCC1)C2C(=O)O)c1ccccc1` (stereo not drawn) [Compound F, 6-(2"-amino-2"-phenylacetamido)-2',3',5',6'-tetrahydro-spiro[penam-2,4'-[4H]thiopyran]-3-carboxylic acid] the “MIC, relative value” [1] was 15 and the “resistance to beta-lactamase, in words” value [4] was “increased resistance”.
